From ChEMBL document CHEMBL1132935, “Design and synthesis of aryloxyethyl thiocyanate derivatives as potent inhibitors of Trypanosoma cruzi proliferation” (J Med Chem, 2000)

Columns and labels:
Trypanosoma cruzi [1] = assay: 50% inhibitory concentration against the growth of Trypanosoma cruzi (Epimastigotes); assay type: functional, organism-based
Trypanosoma cruzi [2] = assay: 50% inhibitory concentration against the growth of intracellular Trypanosoma cruzi; assay type: functional, organism-based
Trypanosoma cruzi [3] = assay: 90% inhibitory concentration against the growth of Trypanosoma cruzi (Epimastigotes); assay type: functional

Compound	IC50 (Trypanosoma cruzi [1]) [µM]	IC50 (Trypanosoma cruzi [2]) [µM]	IC90 (Trypanosoma cruzi [3]) [µM]
N#CSCCNc1ccc(Oc2ccccc2)cc1	141	–	–
c1ccc(Oc2ccc(SCCOC3CCCCO3)cc2)cc1 (stereo not drawn)	291	–	–
CC(=O)N(CCOC1CCCCO1)c1ccc(Oc2ccccc2)cc1 (stereo not drawn)	211	–	–
N#CSCCOc1ccc(Cl)cc1Cl	1	> 100	30
N#CSCCOc1ccc(Oc2ccccc2)cc1I	1.8	> 100	23
C[C@H](COc1ccc(Oc2ccccc2)cc1)SC#N	> 82	–	–
CC(=O)N(CCO)c1ccc(Oc2ccccc2)cc1	277	–	–
N#CSCCOc1ccc(Oc2ccccc2)cc1	–	16	3.5
Cc1ccccc1Oc1ccc(OCCOC2CCCCO2)cc1 (stereo not drawn)	143	–	–
N#CSCCOc1ccc2oc3ccccc3c(=O)c2c1	54	–	–
N#CSCc1ccc(Oc2ccccc2)cc1	18.7	–	–
N#CSCCSc1ccc(Oc2ccccc2)cc1	0.87	–	32
Brc1cccc(Oc2ccc(OCCOC3CCCCO3)cc2)c1 (stereo not drawn)	138	–	–
Clc1ccc(OCCOC2CCCCO2)cc1 (stereo not drawn)	> 390	–	–
C[C@@H](COc1ccc(Oc2ccccc2)cc1)SC#N	25	–	–
N#CSCCOc1ccc(Cl)cc1	14.1	–	–
N#CSCCOc1ccc(Oc2ccccc2)cc1Cl	24.5	–	–
Cc1ccccc1Oc1ccc(OCCSC#N)cc1	2.7	41.7	3.5
c1ccc(Oc2ccc(COC3CCCCO3)cc2)cc1 (stereo not drawn)	102	–	–
N#CSCCOc1ccc(Oc2ccccc2)cc1Br	1.4	64.5	18
Brc1cccc(OCCOC2CCCCO2)c1 (stereo not drawn)	104	–	–
N#CSCCOc1cccc(Br)c1	< 4	–	27
N#CSCCOc1ccc(Oc2cccc(Br)c2)cc1	2.9	–	–
CC(=O)N(CCSC#N)c1ccc(Oc2ccccc2)cc1	14.4	–	–
Ic1cc(Oc2ccccc2)ccc1OCCOC1CCCCO1 (stereo not drawn)	45	–	–
O=c1c2ccccc2oc2ccc(OCCOC3CCCCO3)cc12 (stereo not drawn)	> 60	–	–
Cc1cccc(C)c1Oc1ccc(OCCOC2CCCCO2)cc1 (stereo not drawn)	> 60	–	–
